For assay [1], the target named is Cyclin-dependent kinase 4 (Homo sapiens, UniProt P11802).
In assay [2] the target is T1, Structural maintenance of chromosomes protein 1A (Homo sapiens, UniProt Q14683).
T1 sequence (Q14683 whole entry): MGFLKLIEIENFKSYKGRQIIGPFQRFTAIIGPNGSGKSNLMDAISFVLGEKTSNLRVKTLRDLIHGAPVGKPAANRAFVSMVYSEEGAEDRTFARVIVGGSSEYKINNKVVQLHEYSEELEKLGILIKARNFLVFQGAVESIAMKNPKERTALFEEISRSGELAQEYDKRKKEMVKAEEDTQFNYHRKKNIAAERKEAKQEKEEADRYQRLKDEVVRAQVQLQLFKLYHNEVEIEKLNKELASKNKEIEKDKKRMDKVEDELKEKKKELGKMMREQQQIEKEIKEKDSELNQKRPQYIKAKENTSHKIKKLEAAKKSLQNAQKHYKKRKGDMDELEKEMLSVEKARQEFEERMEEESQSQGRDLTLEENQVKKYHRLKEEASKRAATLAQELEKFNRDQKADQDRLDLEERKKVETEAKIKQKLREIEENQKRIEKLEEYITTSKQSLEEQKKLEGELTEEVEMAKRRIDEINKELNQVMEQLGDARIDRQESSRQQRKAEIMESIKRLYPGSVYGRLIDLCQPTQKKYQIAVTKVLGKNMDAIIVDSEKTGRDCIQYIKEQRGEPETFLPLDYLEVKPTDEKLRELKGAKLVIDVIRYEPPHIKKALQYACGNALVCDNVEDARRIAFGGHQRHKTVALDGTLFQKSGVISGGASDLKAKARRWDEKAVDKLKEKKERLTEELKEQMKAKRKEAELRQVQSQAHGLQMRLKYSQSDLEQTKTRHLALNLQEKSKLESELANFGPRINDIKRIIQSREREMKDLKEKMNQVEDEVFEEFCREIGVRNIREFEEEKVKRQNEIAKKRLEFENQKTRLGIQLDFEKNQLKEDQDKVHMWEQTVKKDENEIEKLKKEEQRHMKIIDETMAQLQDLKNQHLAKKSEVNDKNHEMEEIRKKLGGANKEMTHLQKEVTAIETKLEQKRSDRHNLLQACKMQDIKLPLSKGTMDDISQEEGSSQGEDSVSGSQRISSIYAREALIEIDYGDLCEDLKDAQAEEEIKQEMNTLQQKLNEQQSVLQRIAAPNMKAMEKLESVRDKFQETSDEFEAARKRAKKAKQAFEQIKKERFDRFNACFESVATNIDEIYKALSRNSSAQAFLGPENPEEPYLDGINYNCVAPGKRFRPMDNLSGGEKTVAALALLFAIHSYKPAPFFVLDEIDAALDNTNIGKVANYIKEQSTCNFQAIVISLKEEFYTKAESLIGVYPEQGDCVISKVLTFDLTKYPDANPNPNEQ

The target in assay [3] is T2, Ephrin type-B receptor 4 (Homo sapiens, UniProt P54760).
T2 sequence (P54760 whole entry): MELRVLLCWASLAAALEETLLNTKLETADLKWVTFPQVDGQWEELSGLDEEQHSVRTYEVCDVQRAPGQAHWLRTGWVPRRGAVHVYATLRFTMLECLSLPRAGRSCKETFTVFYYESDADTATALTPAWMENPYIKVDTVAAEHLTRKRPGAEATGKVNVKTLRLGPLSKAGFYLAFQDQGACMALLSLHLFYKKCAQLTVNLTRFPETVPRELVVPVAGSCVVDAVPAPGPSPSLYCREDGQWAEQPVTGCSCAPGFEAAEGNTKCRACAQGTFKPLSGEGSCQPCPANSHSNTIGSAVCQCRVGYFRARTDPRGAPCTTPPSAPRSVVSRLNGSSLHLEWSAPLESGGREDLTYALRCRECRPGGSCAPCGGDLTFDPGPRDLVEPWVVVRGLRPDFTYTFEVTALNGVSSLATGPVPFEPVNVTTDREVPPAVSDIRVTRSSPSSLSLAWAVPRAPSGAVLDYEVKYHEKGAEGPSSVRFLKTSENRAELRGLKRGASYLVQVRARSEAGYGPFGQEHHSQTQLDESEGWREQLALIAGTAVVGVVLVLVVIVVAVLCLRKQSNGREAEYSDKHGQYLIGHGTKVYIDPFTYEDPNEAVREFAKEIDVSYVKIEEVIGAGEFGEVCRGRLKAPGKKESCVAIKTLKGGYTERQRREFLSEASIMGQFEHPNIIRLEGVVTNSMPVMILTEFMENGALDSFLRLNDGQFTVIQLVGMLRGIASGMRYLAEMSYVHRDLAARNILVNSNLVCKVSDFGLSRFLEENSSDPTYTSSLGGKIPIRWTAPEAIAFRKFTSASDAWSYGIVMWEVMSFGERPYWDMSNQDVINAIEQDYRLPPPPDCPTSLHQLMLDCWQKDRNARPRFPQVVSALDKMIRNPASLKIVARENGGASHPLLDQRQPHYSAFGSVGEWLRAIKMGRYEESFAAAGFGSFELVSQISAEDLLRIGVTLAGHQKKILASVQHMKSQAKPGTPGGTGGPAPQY

Assay [4] concerns the target AP2-associated protein kinase 1 (Homo sapiens, UniProt Q2M2I8).
Assay [5] addresses T3, Serine/threonine-protein kinase Chk1 (Homo sapiens, UniProt O14757).
T3 sequence (O14757 whole entry): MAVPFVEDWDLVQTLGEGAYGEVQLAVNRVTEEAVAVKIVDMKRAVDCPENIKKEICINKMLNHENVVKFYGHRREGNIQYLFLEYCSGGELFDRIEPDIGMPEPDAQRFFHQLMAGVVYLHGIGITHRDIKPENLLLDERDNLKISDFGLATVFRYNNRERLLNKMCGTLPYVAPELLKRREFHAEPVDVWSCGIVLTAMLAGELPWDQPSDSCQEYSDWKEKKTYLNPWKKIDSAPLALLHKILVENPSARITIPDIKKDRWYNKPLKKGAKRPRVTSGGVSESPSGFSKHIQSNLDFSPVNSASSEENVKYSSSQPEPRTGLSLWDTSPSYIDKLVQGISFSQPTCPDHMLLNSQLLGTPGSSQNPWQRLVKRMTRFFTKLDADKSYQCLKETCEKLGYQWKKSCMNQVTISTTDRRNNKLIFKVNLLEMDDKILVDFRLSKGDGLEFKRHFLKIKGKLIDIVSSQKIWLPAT

Assay [6] deals with Aurora kinase B (Homo sapiens, UniProt Q96GD4).
Sequence of Aurora kinase B (Q96GD4 whole entry): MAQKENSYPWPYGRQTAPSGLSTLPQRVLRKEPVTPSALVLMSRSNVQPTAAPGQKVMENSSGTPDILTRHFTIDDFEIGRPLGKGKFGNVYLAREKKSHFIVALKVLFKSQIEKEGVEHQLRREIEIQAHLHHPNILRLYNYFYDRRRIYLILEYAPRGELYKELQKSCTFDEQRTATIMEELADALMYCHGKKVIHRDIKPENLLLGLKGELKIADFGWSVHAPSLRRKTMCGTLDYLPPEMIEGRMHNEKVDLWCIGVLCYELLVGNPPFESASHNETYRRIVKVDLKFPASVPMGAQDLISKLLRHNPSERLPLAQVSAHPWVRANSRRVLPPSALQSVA
In assay [7] the target is Macrophage-stimulating protein receptor (Homo sapiens, UniProt Q04912).
Sequence of Macrophage-stimulating protein receptor (Q04912 25-304 limits assumed): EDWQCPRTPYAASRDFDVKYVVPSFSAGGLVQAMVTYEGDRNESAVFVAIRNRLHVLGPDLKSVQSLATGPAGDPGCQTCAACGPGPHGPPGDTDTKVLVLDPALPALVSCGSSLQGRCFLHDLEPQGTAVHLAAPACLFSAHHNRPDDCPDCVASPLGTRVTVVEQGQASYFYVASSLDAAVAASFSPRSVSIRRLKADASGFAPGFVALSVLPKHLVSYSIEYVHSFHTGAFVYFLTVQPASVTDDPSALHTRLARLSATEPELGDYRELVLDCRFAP
Sequence of Macrophage-stimulating protein receptor (Q04912 310-1400 limits assumed): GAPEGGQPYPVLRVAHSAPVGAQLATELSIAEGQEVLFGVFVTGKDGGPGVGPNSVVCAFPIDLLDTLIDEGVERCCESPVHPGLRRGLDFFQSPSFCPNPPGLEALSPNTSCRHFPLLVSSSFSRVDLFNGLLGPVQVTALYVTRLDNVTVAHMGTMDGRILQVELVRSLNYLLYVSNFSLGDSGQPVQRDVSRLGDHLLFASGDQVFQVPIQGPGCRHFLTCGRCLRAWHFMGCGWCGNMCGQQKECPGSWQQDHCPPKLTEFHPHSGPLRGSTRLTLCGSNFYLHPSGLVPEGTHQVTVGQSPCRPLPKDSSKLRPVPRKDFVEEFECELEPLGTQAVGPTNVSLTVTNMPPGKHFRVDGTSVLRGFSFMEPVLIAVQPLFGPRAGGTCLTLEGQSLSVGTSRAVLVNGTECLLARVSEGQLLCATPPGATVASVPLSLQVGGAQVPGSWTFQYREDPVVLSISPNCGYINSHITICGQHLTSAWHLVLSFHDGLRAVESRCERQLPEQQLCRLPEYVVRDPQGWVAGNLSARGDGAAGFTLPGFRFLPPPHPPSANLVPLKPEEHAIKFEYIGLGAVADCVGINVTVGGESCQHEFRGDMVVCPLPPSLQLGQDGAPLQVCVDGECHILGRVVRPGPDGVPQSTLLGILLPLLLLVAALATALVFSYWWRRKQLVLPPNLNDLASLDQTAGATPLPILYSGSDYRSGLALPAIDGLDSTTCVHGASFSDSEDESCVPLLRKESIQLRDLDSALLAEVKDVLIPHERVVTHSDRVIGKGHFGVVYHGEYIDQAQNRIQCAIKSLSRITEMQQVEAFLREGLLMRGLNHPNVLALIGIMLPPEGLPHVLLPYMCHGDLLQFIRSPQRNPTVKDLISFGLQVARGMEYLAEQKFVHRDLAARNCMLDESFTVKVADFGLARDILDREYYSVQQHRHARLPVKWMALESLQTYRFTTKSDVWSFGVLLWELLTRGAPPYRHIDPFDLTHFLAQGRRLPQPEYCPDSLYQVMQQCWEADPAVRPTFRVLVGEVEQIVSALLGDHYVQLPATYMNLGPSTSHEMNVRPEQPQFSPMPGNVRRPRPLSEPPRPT
Assay [8] concerns the target BMP-2-inducible protein kinase (Homo sapiens, UniProt Q9NSY1).
Assay [9] has as its target 26S proteasome regulatory subunit 6B (Homo sapiens, UniProt P43686).

Activity calls are given as the source filed them. Rule as the data show it, for most assays here: actives have a measured Kd and inactives only a lower limit.

Drawing on ChEMBL document CHEMBL3991601, “The target landscape of clinical kinase drugs” (Science, 2017), this text covers Kd for seven compounds.
Also: in the data inactive means no Kd found up to 30 µM.

Sequence of AP2-associated protein kinase 1 (Q2M2I8 whole entry): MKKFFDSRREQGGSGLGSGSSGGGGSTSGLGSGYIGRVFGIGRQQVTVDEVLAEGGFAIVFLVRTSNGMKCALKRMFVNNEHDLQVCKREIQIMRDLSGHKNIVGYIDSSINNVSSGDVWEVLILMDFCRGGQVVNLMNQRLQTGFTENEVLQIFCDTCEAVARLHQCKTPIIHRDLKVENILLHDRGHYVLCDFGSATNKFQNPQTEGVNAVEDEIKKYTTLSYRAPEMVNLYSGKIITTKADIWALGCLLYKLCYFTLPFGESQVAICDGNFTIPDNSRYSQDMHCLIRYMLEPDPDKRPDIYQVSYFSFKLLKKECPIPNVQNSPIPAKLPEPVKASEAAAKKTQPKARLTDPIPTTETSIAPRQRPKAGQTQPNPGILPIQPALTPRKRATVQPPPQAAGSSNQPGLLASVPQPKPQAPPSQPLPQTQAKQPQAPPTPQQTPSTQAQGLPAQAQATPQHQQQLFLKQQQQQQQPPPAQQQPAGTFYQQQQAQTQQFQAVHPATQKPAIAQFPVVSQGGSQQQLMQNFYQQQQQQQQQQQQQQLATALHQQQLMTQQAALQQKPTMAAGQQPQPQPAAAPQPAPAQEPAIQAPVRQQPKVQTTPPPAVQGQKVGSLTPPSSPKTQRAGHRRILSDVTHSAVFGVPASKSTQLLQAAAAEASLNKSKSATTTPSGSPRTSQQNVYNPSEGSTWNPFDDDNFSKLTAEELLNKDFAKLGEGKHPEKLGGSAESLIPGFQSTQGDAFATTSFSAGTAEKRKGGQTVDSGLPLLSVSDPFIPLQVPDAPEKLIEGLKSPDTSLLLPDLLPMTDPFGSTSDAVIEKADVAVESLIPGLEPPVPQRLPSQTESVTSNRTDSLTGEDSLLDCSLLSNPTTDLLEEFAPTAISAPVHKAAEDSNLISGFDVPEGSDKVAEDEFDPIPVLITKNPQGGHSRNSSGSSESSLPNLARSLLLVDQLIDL
Sequence of Cyclin-dependent kinase 4 (P11802 whole entry): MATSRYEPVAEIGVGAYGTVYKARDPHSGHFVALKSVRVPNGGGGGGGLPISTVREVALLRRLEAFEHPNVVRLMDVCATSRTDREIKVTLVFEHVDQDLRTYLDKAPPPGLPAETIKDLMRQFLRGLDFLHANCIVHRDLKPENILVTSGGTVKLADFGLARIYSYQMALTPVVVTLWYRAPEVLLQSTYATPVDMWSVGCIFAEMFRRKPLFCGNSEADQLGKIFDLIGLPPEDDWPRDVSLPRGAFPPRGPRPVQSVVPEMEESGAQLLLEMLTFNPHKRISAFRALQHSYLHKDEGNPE
Sequence of BMP-2-inducible protein kinase (Q9NSY1 whole entry): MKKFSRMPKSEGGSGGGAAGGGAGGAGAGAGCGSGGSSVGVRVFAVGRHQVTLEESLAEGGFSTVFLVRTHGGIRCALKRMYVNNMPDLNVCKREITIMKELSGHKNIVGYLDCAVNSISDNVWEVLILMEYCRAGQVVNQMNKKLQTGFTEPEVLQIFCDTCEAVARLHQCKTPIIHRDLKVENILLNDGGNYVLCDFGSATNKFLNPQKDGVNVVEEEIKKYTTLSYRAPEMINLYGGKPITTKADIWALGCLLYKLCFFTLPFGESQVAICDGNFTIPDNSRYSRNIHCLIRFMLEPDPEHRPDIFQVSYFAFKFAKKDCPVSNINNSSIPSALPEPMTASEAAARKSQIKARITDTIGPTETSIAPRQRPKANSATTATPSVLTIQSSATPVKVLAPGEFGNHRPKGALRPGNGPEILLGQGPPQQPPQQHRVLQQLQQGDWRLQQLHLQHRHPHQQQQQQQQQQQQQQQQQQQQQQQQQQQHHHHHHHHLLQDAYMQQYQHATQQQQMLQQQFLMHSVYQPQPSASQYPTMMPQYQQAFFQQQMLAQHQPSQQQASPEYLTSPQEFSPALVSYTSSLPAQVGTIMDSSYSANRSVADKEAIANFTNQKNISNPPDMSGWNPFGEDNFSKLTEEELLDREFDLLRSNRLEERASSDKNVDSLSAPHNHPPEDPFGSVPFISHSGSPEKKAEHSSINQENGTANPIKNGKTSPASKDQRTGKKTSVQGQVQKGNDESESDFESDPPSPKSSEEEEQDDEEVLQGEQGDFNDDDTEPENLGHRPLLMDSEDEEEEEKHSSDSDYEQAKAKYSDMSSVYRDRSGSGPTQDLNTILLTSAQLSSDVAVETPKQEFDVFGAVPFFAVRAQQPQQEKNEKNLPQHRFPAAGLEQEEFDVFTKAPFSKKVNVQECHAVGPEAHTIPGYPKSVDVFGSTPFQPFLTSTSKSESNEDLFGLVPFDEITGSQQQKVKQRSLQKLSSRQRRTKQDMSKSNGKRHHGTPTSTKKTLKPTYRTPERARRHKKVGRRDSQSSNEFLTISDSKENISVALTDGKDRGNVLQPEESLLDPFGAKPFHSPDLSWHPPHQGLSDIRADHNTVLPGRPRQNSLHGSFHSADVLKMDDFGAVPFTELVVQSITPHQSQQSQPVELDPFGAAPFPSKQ
Sequence of 26S proteasome regulatory subunit 6B (P43686 whole entry): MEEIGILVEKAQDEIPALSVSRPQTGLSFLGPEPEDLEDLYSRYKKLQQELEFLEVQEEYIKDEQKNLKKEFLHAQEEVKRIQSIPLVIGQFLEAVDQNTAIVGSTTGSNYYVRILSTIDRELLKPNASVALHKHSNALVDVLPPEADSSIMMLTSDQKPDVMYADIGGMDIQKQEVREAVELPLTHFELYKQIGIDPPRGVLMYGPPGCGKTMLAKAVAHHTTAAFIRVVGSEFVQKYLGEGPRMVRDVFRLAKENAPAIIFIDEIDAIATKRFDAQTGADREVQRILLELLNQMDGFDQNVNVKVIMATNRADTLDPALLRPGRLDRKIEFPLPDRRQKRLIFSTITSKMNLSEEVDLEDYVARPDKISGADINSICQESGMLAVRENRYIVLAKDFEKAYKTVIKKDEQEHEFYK

As a reminder, the Kd is a measure of binding affinity in units of concentration. With `NC1(c2ccc(-c3nc4ccn5c(=O)[nH]nc5c4cc3-c3ccccc3)cc2)CCC1` [MK-2206], the Kd in assay [1], in [2], in assay [3], in assay [4], in assay [5] and in [6] was > 30 µM (inactive) throughout. Besides, the Kd in [7], in assay [8] and in assay [9] was > 30 µM (inactive) in each case.

As to `CN(C[C@@H]1COCCO1)S(=O)(=O)Nc1ccc2ccc3ncc(-c4cnn(C)c4)cc3c(=O)c2c1` [MK-2461], the Kd in [1] is > 30 µM (inactive); in assay [2] it was > 30 µM (inactive); in assay [3], > 30 µM (inactive); in assay [4], 3.65 µM (active); in [5], > 30 µM (inactive); in [6], > 30 µM (inactive). Also, the Kd in assay [7] was 0.278 µM (active); in assay [8], > 30 µM (inactive); in assay [9] it was > 30 µM (inactive).

`Cn1cc(-c2cnc3ccc4ccc(CS(=O)(=O)NCc5ccccn5)cc4c(=O)c3c2)cn1` [MK-8033]: the Kd in [1], in assay [2], in assay [3], in [4], in assay [5] and in assay [6] was > 30 µM (inactive) in each case. For the same compound, the Kd in [7] was 0.956 µM (active); in assay [8] it was > 30 µM (inactive); in assay [9], > 30 µM (inactive).

With `COc1ncc(-c2ccc3nccc(-c4ccnnc4)c3c2)cc1NS(=O)(=O)c1ccc(F)cc1F` [OMIPALISIB], the Kd in assay [1], in [2], in [3], in assay [4], in assay [5] and in [6] was > 30 µM (inactive) in each case. Also, the Kd in [7], in [8] and in [9] was > 30 µM (inactive) each time.

In the case of `CCCCCCCCCCCCCCCCCCOP(=O)([O-])OC1CC[N+](C)(C)CC1` [PERIFOSINE], the Kd in assay [1], in [2], in assay [3], in [4], in assay [5] and in assay [6] was > 30 µM (inactive) each time. Further, the Kd in assay [7], in [8] and in assay [9] was > 30 µM (inactive) in each case.

Consider `Cc1nc(Nc2n[nH]c3c2CN(C(=O)N[C@H](CN(C)C)c2ccccc2)C3(C)C)c2sccc2n1` [PF-03758309], for which the Kd in [1] was > 30 µM (inactive); in assay [2] it was > 30 µM (inactive); in assay [3] it was > 30 µM (inactive); in [4], 3.04 µM (active); in assay [5], 0.21 µM (active); in assay [6], 2.08 µM (active). Moreover, the figures for the Kd in assay [7], in [8] and in assay [9] were > 30 µM (inactive), 2.54 µM (active) and > 30 µM (inactive), respectively.

In the case of `CO[C@H]1C[C@@H]2CC[C@@H](C)[C@@](O)(O2)C(=O)C(=O)N2CCCC[C@H]2C(=O)O[C@H]([C@H](C)C[C@@H]2CC[C@@H](OP(C)(C)=O)[C@H](OC)C2)CC(=O)[C@H](C)/C=C(\C)[C@@H](O)[C@@H](OC)C(=O)[C@H](C)C[C@H](C)/C=C/C=C/C=C/1C` [RIDAFOROLIMUS], the Kd in assay [1], in assay [2], in [3], in assay [4], in assay [5] and in [6] was > 30 µM (inactive) throughout. Besides, the Kd in assay [7], in assay [8] and in assay [9] was > 30 µM (inactive) in each case.
